Data on 24 molecules can be found in patent US9718828B2 (MERCK SHARP & DOHME CORP., priority 2011, dated 2017).

Structures can show the parent of a compound that is named as a salt.

One test deals with Btk enzyme (His-Btk) (Homo sapiens (Human), UniProt Q06187). Description: Btk enzyme activity, IMAP fluorescence polarization assay (Assay Method A).
Sequence of Btk enzyme (His-Btk) (Q06187 whole entry): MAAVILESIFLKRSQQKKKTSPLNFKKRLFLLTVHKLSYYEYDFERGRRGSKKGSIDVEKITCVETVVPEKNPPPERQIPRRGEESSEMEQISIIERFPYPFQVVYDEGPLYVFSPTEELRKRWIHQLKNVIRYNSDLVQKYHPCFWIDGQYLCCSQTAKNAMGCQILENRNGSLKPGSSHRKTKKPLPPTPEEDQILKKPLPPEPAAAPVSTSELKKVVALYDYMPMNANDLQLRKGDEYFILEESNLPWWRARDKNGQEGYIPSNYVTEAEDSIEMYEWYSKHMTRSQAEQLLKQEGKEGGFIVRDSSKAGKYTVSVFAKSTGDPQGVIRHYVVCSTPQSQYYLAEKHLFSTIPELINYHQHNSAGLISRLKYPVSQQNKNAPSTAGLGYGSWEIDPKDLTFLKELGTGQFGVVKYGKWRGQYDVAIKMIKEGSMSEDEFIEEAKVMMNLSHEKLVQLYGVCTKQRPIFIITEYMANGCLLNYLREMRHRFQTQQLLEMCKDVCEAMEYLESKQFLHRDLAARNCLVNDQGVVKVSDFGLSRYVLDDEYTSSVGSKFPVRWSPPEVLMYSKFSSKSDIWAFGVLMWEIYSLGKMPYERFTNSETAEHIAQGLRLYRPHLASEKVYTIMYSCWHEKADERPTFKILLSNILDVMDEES
Settings: not given
Molecule `Nc1nccn2c([C@@H]3CCC[C@H](NC(=O)OCc4ccccc4)C3)nc(-c3ccc(C(=O)Nc4cc(C(F)(F)F)ccn4)cc3)c12` (relative stereo) [Example 154, benzyl (cis)-3-(8-amino-1-(4-(4-(trifluoromethyl)pyridin-2-ylcarbamoyl)phenyl)imidazo [1,5-a]pyrazin-3-yl)cyclohexylcarbamate] registered an EC50 of 0.01 to 0.1 µM.

For the molecule `Nc1nccn2c([C@@H]3CCC[C@H](N)C3)nc(-c3ccc(C(=O)Nc4cc(C(F)(F)F)ccn4)cc3)c12` (relative stereo) [Example 157, 4-(8-amino-3-((cis)-3-aminocyclohexyl)imidazo[1,5-a]pyrazin-1-yl)-N-(4-(trifluoromethyl)pyridin-2-yl)benzamide], the EC50 fell in the range of 0.01 to 0.1 µM.

`CC(C)(C#N)C(=O)N[C@@H]1CCC[C@@H](c2nc(-c3ccc(C(=O)Nc4cc(C(F)(F)F)ccn4)cc3)c3c(N)nccn23)C1` (relative stereo) [Example 162, 4-(8-amino-3-((trans)-3-(2-cyano-2-methylpropanamido)-cyclohexyl)imidazo[1,5-a]pyrazin-1-yl)-N-(4-(trifluoromethyl)pyridin-2-yl)benzamide] yielded an EC50 of under 0.01 µM.

`CC1(C(=O)N2C[C@@H](O)C[C@@H](c3nc(-c4ccc(C(=O)Nc5cc(C(F)(F)F)ccn5)cc4)c4c(N)nccn34)C2)COC1` (relative stereo) [Example 179, 4-(8-amino-3-((cis)-5-hydroxy-1-(3-methyloxetane-3-carbonyl)piperidin-3-yl)imidazo[1,5-a]pyrazin-1-yl)-N-(4-(trifluoromethyl)pyridin-2-yl)benzamide] gave an EC50 of 0.01 to 0.1 µM.

Take `CCOC(=O)N1C[C@H](c2nc(-c3ccc(C(=O)Nc4cc(C(F)(F)F)ccn4)cc3)c3c(N)nccn23)CC[C@H]1C` (relative stereo) [Example 182, (trans)-ethyl 5-(8-amino-1-(4-(4-(trifluoromethyl)pyridin-2-ylcarbamoyl)phenyl)imidazo [1,5-a]pyrazin-3-yl)-2-methylpiperidine-1-carboxylate, TFA salt]: the EC50 is under 0.01 µM.

`C[C@@H]1CC[C@@H](c2nc(-c3ccc(C(=O)Nc4cc(C(F)(F)F)ccn4)cc3)c3c(N)nccn23)CN1C(=O)C1CCCO1` (relative stereo) [Example 185, 4-(8-amino-3-((trans)-6-methyl-1-(tetrahydrofuran-2-carbonyl)piperidin-3-yl)imidazo[1,5-a]pyrazin-1-yl)-N-(4-(trifluoromethyl)pyridin-2-yl)benzamide, TFA salt]: the EC50 lay in the range of 0.01 to 0.1 µM.

Still in this test, the particulars now being: read-out: EC50 Btk activity values - Assay Method A; IMAP-FP, 60 min pre-incubation, 5 μM ATP; class 100-1000 is given as ≧100 nM-<1 μM.
Take `CCNC(=O)N[C@H]1CCC[C@@H](c2nc(-c3ccc(C(=O)Nc4cc(C(F)(F)F)ccn4)cc3)c3c(N)nccn23)C1` (relative stereo) [Example 155, 4-(8-amino-3-((cis)-3-(3-ethylureido)cyclohexyl)imidazo [1,5-a]pyrazin-1-yl)-N-(4-(trifluoromethyl)pyridin-2-yl)benzamide]: the EC50 is under 0.01 µM.

Turning to `Nc1nccn2c([C@@H]3CCC[C@H](NC(=O)C4CC4)C3)nc(-c3ccc(C(=O)Nc4cc(C(F)(F)F)ccn4)cc3)c12` (relative stereo) [Example 156, 4-(8-amino-3-((cis)-3-(cyclopropanecarboxamido)cyclohexyl)imidazo[1,5-a]pyrazin-1-yl)-N-(4-(trifluoromethyl)pyridin-2-yl)benzamide], the EC50 was under 0.01 µM.

For the molecule `COCCC(=O)N[C@H]1CCC[C@@H](c2nc(-c3ccc(C(=O)Nc4cc(C(F)(F)F)ccn4)cc3)c3c(N)nccn23)C1` (relative stereo) [Example 158, 4-(8-amino-3-((cis)-3-(3-methoxypropanamido)cyclohexyl)imidazo [1,5-a]pyrazin-1-yl)-N-(4-(trifluoromethyl)pyridin-2-yl)benzamide], the EC50 is under 0.01 µM.

As to `CC(C)C(=O)N[C@H]1CCC[C@@H](c2nc(-c3ccc(C(=O)Nc4cc(C(F)(F)F)ccn4)cc3)c3c(N)nccn23)C1` (relative stereo) [Example 159, 4-(8-amino-3-((cis)-3-isobutyramidocyclohexyl)imidazo [1,5-a]pyrazin-1-yl)-N-(4-(trifluoromethyl)pyridin-2-yl)benzamide], the EC50 was under 0.01 µM.

Consider `CCC(=O)N[C@H]1CCC[C@@H](c2nc(-c3ccc(C(=O)Nc4cc(C(F)(F)F)ccn4)cc3)c3c(N)nccn23)C1` (relative stereo) [Example 161, 4-(8-amino-3-((cis)-3-propionamidocyclohexyl)imidazo[1,5-a]pyrazin-1-yl)-N-(4-(trifluoromethyl)pyridin-2-yl)benzamide], for which the EC50 was under 0.01 µM.

`CC(C)(F)C(=O)N[C@@H]1CCC[C@@H](c2nc(-c3ccc(C(=O)Nc4cc(C(F)(F)F)ccn4)cc3)c3c(N)nccn23)C1` (relative stereo) [Example 163, 4-(8-amino-3-((trans)-3-(2-fluoro-2-methylpropanamido)cyclohexyl)imidazo[1,5-a]pyrazin-1-yl)-N-(4-(trifluoromethyl)pyridin-2-yl)benzamide]: the EC50 is under 0.01 µM.

As for `Nc1nccn2c([C@@H]3CCC[C@@H](NC(=O)C4CC4)C3)nc(-c3ccc(C(=O)Nc4cc(C(F)(F)F)ccn4)cc3)c12` (relative stereo) [Example 164, 4-(8-amino-3-((trans)-3-(cyclopropanecarboxamido)cyclohexyl)imidazo[1,5-a]pyrazin-1-yl)-N-(4-(trifluoromethyl)pyridin-2-yl)benzamide], the EC50 is under 0.01 µM.

As for `Nc1nccn2c([C@@H]3CCC[C@@H](N)C3)nc(-c3ccc(C(=O)Nc4cc(C(F)(F)F)ccn4)cc3)c12` (relative stereo) [Example 165, 4-(8-amino-3-((trans)-3-aminocyclohexyl)imidazo[1,5-a]pyrazin-1-yl)-N-(4-(trifluoromethyl)pyridin-2-yl)benzamide], the EC50 was under 0.01 µM.

As for `COCCC(=O)N[C@@H]1CCC[C@@H](c2nc(-c3ccc(C(=O)Nc4cc(C(F)(F)F)ccn4)cc3)c3c(N)nccn23)C1` (relative stereo) [Example 166, 4-(8-amino-3-((trans)-3-(3-methoxypropanamido)cyclohexyl)imidazo[1,5-a]pyrazin-1-yl)-N-(4-(trifluoromethyl)pyridin-2-yl)benzamide], the EC50 is under 0.01 µM.

Turning to `CC(C)C(=O)N[C@@H]1CCC[C@@H](c2nc(-c3ccc(C(=O)Nc4cc(C(F)(F)F)ccn4)cc3)c3c(N)nccn23)C1` (relative stereo) [Example 167, 4-(8-amino-3-((trans)-3-isobutyramidocyclohexyl)imidazo [1,5-a]pyrazin-1-yl)-N-(4-(trifluoromethyl)pyridin-2-yl)benzamide], the EC50 is under 0.01 µM.

Turning to `Nc1nccn2c([C@@H]3CCC[C@@H](NC(=O)C4CCCO4)C3)nc(-c3ccc(C(=O)Nc4cc(C(F)(F)F)ccn4)cc3)c12` (relative stereo) [Example 169, N-((trans)-3-(8-amino-1-(4-(4-(trifluoromethyl)pyridin-2-ylcarbamoyl)phenyl)imidazo [1,5-a]pyrazin-3-yl)cyclohexyl)tetrahydrofuran-2-carboxamide], the EC50 is under 0.01 µM.

For `CCC(=O)N[C@@H]1CCC[C@@H](c2nc(-c3ccc(C(=O)Nc4cc(C(F)(F)F)ccn4)cc3)c3c(N)nccn23)C1` (relative stereo) [Example 170, 4-(8-amino-3-((trans)-3-propionamidocyclohexyl)imidazo [1,5-a]pyrazin-1-yl)-N-(4-(trifluoromethyl)pyridin-2-yl)benzamide], the EC50 was under 0.01 µM.

In the case of `Nc1nccn2c([C@@H]3CCC[C@@H](NC(=O)C4CCC4)C3)nc(-c3ccc(C(=O)Nc4cc(C(F)(F)F)ccn4)cc3)c12` (relative stereo) [Example 171, 4-(8-amino-3-((trans)-3-(cyclobutanecarboxamido)cyclohexyl)imidazo[1,5-a]pyrazin-1-yl)-N-(4-(trifluoromethyl)pyridin-2-yl)benzamide], the EC50 is under 0.01 µM.

For `Nc1nccn2c([C@@H]3C[C@H](O)CN(C(=O)C4CC4)C3)nc(-c3ccc(C(=O)Nc4cc(C(F)(F)F)ccn4)cc3)c12` (relative stereo) [Example 180, 4-(8-amino-3-((cis)-1-(cyclopropanecarbonyl)-5-hydroxypiperidin-3-yl)imidazo[1,5-a]pyrazin-1-yl)-N-(4-(trifluoromethyl)pyridin-2-yl)benzamide], the EC50 is under 0.01 µM.

With `COCCC(=O)N1C[C@@H](O)C[C@@H](c2nc(-c3ccc(C(=O)Nc4cc(C(F)(F)F)ccn4)cc3)c3c(N)nccn23)C1` (relative stereo) [Example 181, 4-(8-amino-3-((cis)-5-hydroxy-1-(3-methoxypropanoyl)piperidin-3-yl)imidazo[1,5-a]pyrazin-1-yl)-N-(4-(trifluoromethyl)pyridin-2-yl)benzamide], the EC50 is under 0.01 µM.

As for `COCCC(=O)N1C[C@H](c2nc(-c3ccc(C(=O)Nc4cc(C5CC5)ccn4)cc3)c3c(N)nccn23)CC[C@@H]1C` (relative stereo) [Example 183, 4-(8-amino-3-((cis)-1-(3-methoxypropanoyl)-6-methylpiperidin-3-yl)imidazo[1,5-a]pyrazin-1-yl)-N-(4-cyclopropylpyridin-2-yl)benzamide, TFA salt], the EC50 was under 0.01 µM.

Take `C[C@H]1CC[C@@H](c2nc(-c3ccc(C(=O)Nc4cc(C5CC5)ccn4)cc3)c3c(N)nccn23)CN1C(=O)N1CCCCC1` (relative stereo) [Example 184, 4-(8-amino-3-((cis)-6-methyl-1-(piperidine-1-carbonyl)piperidin-3-yl)imidazo[1,5-a]pyrazin-1-yl)-N-(4-cyclopropylpyridin-2-yl)benzamide, TFA salt]: the EC50 was under 0.01 µM.

With `CCNC(=O)N1C[C@H](c2nc(-c3ccc(C(=O)Nc4cc(C(F)(F)F)ccn4)cc3)c3c(N)nccn23)CC[C@H]1C` (relative stereo) [Example 186, (trans)-5-(8-amino-1-(4-(4-(trifluoromethyl)pyridin-2-ylcarbamoyl)phenyl)imidazo [1,5-a]pyrazin-3-yl)-N-ethyl-2-methylpiperidine-1-carboxamide, TFA salt], the EC50 was under 0.01 µM.
